# Assay results from ChEMBL document CHEMBL3864133, “Discovery of a Potent and Selective in Vivo Probe (GNE-272) for the Bromodomains of CBP/EP300” (J Med Chem, 2016).
# How the values were obtained:
# [1] = molecular target: T1, Bromodomain-containing protein 4 (Homo sapiens, UniProt O60885); test: Displacement of biotinylated ligand from recombinant His-tagged BRD4 bromodomain-1 (unknown origin) measured after 10 mins by TR-FRET assay
# [2] = molecular target: T2, CREB-binding protein/Histone acetyltransferase p300 (Homo sapiens, UniProt Q09472+Q92793); test: Displacement of biotinylated ligand from recombinant His-tagged CBP/EP300 (unknown origin) measured after 10 mins by TR-FRET assay; assay type: protein assay
# [3] = molecular target: T2, CREB-binding protein/Histone acetyltransferase p300; test: Inhibition of Halo-tagged histone H3.3 binding to CBP/EP300 (unknown origin) expressed in HEK293 cells measured after overnight incubation by luciferase reporter gene based BRET assay; assay type: cell-based
# [4] = Apparent permeability of the compound across apical side to basolateral side in MDCK cells at 10 uM measured after 180 mins by LC-MS/MS analysis; assay type: ADME, cell-based, Canis lupus familiaris; conditions: dog
# [5] = Drug metabolism in human liver microsomes assessed as phenyl ring oxidation at 10 uM up to 1 hr in presence of NADPH by LC-MS analysis; assay type: ADME
# [6] = Drug metabolism in human liver microsomes assessed as cleavage of cyclopropylmethyl moiety at 10 uM up to 1 hr in presence of NADPH by LC-MS analysis; assay type: ADME
# [7] = Drug metabolism in mouse liver microsomes assessed as phenyl ring oxidation at 10 uM up to 1 hr in presence of NADPH by LC-MS analysis; assay type: ADME
# [8] = Drug metabolism in mouse liver microsomes assessed as cleavage of cyclopropylmethyl moiety at 10 uM up to 1 hr in presence of NADPH by LC-MS analysis; assay type: ADME
# [9] = Clearance in mouse; assay type: ADME, organism-based; conditions: in vivo
# [10] = Oral bioavailability in mouse; assay type: ADME, organism-based; conditions: in vivo
# [11] = molecular target: T3, CREB-binding protein (Homo sapiens, UniProt Q92793); test: Displacement of biotinylated ligand from CBP (unknown origin) by TR-FRET assay
# T3 sequence (Q92793 whole entry): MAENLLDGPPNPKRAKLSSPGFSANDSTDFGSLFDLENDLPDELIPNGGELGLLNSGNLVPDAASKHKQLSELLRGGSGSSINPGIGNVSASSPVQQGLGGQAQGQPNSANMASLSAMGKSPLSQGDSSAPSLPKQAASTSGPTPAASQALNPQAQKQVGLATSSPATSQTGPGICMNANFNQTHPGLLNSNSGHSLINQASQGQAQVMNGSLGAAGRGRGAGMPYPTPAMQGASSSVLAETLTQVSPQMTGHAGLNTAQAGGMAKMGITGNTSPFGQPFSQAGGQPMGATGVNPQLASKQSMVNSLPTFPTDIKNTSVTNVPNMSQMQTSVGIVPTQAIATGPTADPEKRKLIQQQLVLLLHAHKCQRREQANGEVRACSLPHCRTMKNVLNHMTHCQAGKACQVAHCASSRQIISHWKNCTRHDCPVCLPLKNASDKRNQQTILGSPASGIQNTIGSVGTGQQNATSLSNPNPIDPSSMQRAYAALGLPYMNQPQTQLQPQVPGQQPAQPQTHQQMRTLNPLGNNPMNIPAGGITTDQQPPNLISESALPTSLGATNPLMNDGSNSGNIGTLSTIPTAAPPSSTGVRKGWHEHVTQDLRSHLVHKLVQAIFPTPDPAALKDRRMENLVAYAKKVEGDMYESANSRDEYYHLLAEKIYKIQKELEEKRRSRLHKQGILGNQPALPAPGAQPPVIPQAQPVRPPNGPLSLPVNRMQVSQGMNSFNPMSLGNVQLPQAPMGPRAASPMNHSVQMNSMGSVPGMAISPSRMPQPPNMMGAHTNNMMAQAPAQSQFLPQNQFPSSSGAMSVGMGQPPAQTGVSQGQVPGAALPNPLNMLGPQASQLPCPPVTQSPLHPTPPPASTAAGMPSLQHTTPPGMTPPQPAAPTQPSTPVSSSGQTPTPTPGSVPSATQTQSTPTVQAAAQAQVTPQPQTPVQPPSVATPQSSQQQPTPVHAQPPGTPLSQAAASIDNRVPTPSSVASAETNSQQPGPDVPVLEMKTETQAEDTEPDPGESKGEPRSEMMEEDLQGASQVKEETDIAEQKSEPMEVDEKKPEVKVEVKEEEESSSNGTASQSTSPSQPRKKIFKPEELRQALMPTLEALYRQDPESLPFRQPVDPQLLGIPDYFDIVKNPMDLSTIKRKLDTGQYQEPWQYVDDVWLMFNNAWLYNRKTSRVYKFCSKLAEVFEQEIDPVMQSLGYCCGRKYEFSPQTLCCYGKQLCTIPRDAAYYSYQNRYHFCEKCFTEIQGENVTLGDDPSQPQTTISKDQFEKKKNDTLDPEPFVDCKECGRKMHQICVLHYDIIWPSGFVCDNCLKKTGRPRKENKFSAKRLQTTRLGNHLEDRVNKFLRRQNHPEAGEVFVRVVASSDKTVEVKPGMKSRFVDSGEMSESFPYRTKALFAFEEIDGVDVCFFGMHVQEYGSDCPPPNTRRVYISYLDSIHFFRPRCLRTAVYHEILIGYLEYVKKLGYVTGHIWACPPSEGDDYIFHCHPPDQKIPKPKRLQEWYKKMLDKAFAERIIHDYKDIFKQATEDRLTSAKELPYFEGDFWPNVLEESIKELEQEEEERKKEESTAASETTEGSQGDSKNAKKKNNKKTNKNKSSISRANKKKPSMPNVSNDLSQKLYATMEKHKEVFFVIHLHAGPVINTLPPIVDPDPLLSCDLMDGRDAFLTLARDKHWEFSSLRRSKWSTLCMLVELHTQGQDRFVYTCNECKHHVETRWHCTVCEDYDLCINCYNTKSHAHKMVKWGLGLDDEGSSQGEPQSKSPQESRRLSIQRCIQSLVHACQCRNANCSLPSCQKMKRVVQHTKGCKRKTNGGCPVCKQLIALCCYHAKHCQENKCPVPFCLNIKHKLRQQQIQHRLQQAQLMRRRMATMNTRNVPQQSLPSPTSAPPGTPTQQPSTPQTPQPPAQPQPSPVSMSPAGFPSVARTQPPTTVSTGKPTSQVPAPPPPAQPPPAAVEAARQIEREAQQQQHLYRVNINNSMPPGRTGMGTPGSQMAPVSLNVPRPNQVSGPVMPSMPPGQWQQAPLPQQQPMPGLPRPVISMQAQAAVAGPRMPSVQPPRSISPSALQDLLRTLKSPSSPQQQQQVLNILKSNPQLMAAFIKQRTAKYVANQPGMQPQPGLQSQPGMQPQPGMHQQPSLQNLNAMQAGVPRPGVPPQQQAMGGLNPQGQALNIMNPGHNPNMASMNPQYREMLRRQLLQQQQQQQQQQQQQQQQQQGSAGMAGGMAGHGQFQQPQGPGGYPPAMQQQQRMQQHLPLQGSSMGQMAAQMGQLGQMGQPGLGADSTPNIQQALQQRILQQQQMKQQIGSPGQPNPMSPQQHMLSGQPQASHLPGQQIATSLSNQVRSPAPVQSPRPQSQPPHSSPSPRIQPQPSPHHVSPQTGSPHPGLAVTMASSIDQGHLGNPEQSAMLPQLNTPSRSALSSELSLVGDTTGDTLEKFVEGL
# [12] = molecular target: T3, CREB-binding protein; test: Inhibition of Halo-tagged histone H3.3 binding to NanoLuc luciferase conjugated CBP (unknown origin) expressed in HEK293 cells after overnight incubation by BRET assay; assay type: cell-based
# [13] = molecular target: T2, CREB-binding protein/Histone acetyltransferase p300; test: Inhibition of CBP/EP300 (unknown origin) assessed as reduction in MYC expression by cell based assay
# [14] = molecular target: T1, Bromodomain-containing protein 4; test: Displacement of biotinylated ligand from BRD4 bromodomain-1 (unknown origin) by TR-FRET assay
# [15] = Drug metabolism in CD-1 mouse hepatocytes assessed as glucuronidation of compound at 1 uM up to 180 mins by LC-MS/MS analysis; assay type: ADME, cell-based, Hepatocyte; conditions: 3 h
IC50 [1] [µM],IC50 [2] [µM],Compound,also measured
13,–,CC(=O)N1CCc2c(c(Nc3cccc(C)c3)nn2CC2CC2)C1,–
> 20,4.1,Cc1cccc(Nc2n[nH]c3c2CN(C(=O)C2CC2)CC3)c1,–
7.7,0.04,CCNC(=O)c1cccc(Nc2nn(CC3CC3)c3c2CN(C(C)=O)CC3)c1,IC50 [3]: 1.5 µM
> 20,–,CC(=O)N1CCc2c(c(Nc3cccc(C)c3)nn2CCO)C1,–
18,0.1,CC(=O)N1CCc2[nH]nc(Nc3cccc(C(F)(F)F)c3)c2C1,–
> 20,> 5,Cc1cccc(Nc2n[nH]c3c2CN(S(C)(=O)=O)CC3)c1,–
> 20,0.91,CC(=O)N1CCc2[nH]nc(Nc3ccc(F)cc3)c2C1,–
> 20,0.34,COc1cccc(Nc2n[nH]c3c2CN(C(C)=O)CC3)c1,–
4.2,–,CC(=O)N1CCc2c(c(Nc3cccc(-c4cnn(C)c4)c3)nn2CC2CC2)C1,"Papp A→B at 3 h, 10 µM [4]: 18 ×10⁻⁶ cm/s; Drug metabolism [5]: Metabolite_Detected; Drug metabolism [6]: Metabolite_Detected; Drug metabolism [7]: Metabolite_Detected; Drug metabolism [8]: Metabolite_Detected"
–,0.03,CC(=O)N1CCc2c(c(Nc3cccc(C(=O)NC(C)C)c3)nn2CC2CC2)C1,"IC50 [3]: 0.96 µM; clearance [9]: 43 mL/min/kg; bioavailability [10]: 5%; Papp A→B at 3 h, 10 µM [4]: 2.4 ×10⁻⁶ cm/s"
> 20,0.25,CCc1ccc(Nc2n[nH]c3c2CN(C(C)=O)CC3)cc1,–
–,0.03,CC(=O)N1CCc2c(c(Nc3cccc(-c4ccccn4)c3)nn2CC2CC2)C1,"IC50 [3]: 0.56 µM; Papp A→B at 3 h, 10 µM [4]: 15 ×10⁻⁶ cm/s"
> 20,–,COCCn1nc(Nc2cccc(C)c2)c2c1CCN(C(C)=O)C2,–
4.6,–,CC(=O)N1CCc2c(c(Nc3cccc(-c4cn[nH]c4)c3)nn2CC2CC2)C1,"Papp A→B at 3 h, 10 µM [4]: 7.3 ×10⁻⁶ cm/s"
> 20,0.19,CCc1cccc(Nc2n[nH]c3c2CN(C(C)=O)CC3)c1,–
5.9,–,CC(=O)N1CCc2c(c(Nc3cccc(C)c3)nn2Cc2ccncc2)C1,–
–,–,CCC(=O)N1CCOc2c(cc(-c3ccc(OC)c(OC)c3)cc2OC[C@H]2CCCN(C)C2)C1,IC50 [11]: 0.44 µM; IC50 [12]: > 10 µM; EC50 [13]: > 10 µM
> 20,–,COCCNC(=O)c1cccc(Nc2nn(CC3CC3)c3c2CN(C(C)=O)CC3)c1,–
11,–,"CC(=O)N1CCc2c(c(Nc3ccc(-c4cnn(C)c4)cc3)nn2C2CCOC2)C1 (single isomer, unassigned; 58)",–
5.8,0.03,CCCNC(=O)c1cccc(Nc2nn(CC3CC3)c3c2CN(C(C)=O)CC3)c1,IC50 [3]: 1.3 µM
–,–,COc1ccc(CCc2nc3cc(-c4c(C)noc4C)ccc3n2C[C@H](C)N2CCOCC2)cc1Cl,IC50 [14]: 3.2 µM
7.3,–,CC(=O)N1CCc2c(c(Nc3cccc(C)c3)nn2Cc2ccccn2)C1,–
14,0.07,CCCn1nc(Nc2cccc(C)c2)c2c1CCN(C(C)=O)C2,–
5.6,–,CC(=O)N1CCc2c(c(Nc3cccc(C)c3)nn2Cc2cccnc2)C1,–

IC50 [1] [µM],IC50 [2] [µM],Compound,also measured
9.8,0.18,CC(=O)N1CCc2c(c(Nc3cccc(C)c3)nn2CCC2CC2)C1,–
18,0.11,COC(=O)c1cccc(Nc2n[nH]c3c2CN(C(C)=O)CC3)c1,–
0.87,–,CC(=O)N1CCc2c(c(Nc3cccc(-c4ccncc4)c3)nn2CC2CC2)C1,"Papp A→B at 3 h, 10 µM [4]: 20 ×10⁻⁶ cm/s"
> 20,1.4,CC(=O)N1CCc2[nH]nc(Nc3ccccc3F)c2C1,–
3.8,–,CC(=O)N1CCc2c(c(Nc3cccc(-c4ccn[nH]4)c3)nn2CC2CC2)C1,"Papp A→B at 3 h, 10 µM [4]: 6.3 ×10⁻⁶ cm/s"
–,–,CCCOc1ccc(CCc2nc3cc(-c4c(C)noc4C)ccc3n2CCN2CCOCC2)cc1,IC50 [11]: 0.19 µM; IC50 [14]: 2.9 µM; IC50 [12]: > 10 µM; EC50 [13]: 6.6 µM
8.5,–,"CC(=O)N1CCc2c(c(Nc3ccc(-c4cnn(C)c4)cc3)nn2C2CCOC2)C1 (single isomer, unassigned; 57)",–
> 20,–,CC(=O)N1CCc2c(c(Nc3cccc(C)c3)nn2C)C1,–
> 20,0.16,CC(=O)N1CCc2[nH]nc(Nc3cccc(OC(F)F)c3)c2C1,–
> 20,0.43,CC(=O)N1CCc2[nH]nc(Nc3cccc(F)c3)c2C1,–
> 20,4.3,Cc1cccc(Nc2n[nH]c3c2CN(C(=O)C(F)(F)F)CC3)c1,–
6.4,–,CC(=O)N1CCc2c(c(Nc3ccc(-c4cnn(C)c4)cc3)nn2CC2CC2)C1,clearance [9]: 118 mL/min/kg; Drug metabolism [15]: Metabolite_Detected
3.7,–,CC(=O)N1CCc2c(c(Nc3cccc(-c4ccnn4C)c3)nn2CC2CC2)C1,"Papp A→B at 3 h, 10 µM [4]: 15 ×10⁻⁶ cm/s"
8.6,–,CC(=O)N1CCc2c(c(Nc3cccc(-c4cnoc4)c3)nn2CC2CC2)C1,–
> 20,> 5,CCCC(=O)N1CCc2[nH]nc(Nc3cccc(C)c3)c2C1,–
> 20,1.2,CC(=O)N1CCc2[nH]nc(Nc3ccccc3C)c2C1,–
4.6,–,CC(=O)N1CCc2c(c(Nc3cccc(-c4ccccc4)c3)nn2CC2CC2)C1,"IC50 [3]: 2.5 µM; Papp A→B at 3 h, 10 µM [4]: 26 ×10⁻⁶ cm/s"
4,–,CC(=O)N1CCc2c(c(Nc3cccc(-c4cccnc4)c3)nn2CC2CC2)C1,"Papp A→B at 3 h, 10 µM [4]: 24 ×10⁻⁶ cm/s"
11,0.04,CC(=O)N1CCc2c(c(Nc3ccc(-c4cnn(C)c4)cc3)nn2C2COC2)C1,IC50 [3]: 1.2 µM
> 20,0.14,COC(=O)c1ccc(Nc2n[nH]c3c2CN(C(C)=O)CC3)cc1,–
> 20,0.34,CC(=O)N1CCc2[nH]nc(Nc3cccc(C)c3)c2C1,–
> 20,1.4,CCC(=O)N1CCc2[nH]nc(Nc3cccc(C)c3)c2C1,–
> 20,0.3,CC(=O)N1CCc2[nH]nc(Nc3ccc(C)cc3)c2C1,–
